These are literature values, as cited in patent publication US20220202699A1 (priority 2020, published 2022).

In data set [1] the test system is Toll-like receptors (TLR). The settings on record: suppress innate immunity.
Data set [2] relates to influenza A virus.
Data set [3] deals with influenza A virus. This is another data set of the same source.
For data set [4], the system named is inflammatory cell infiltrates (neutrophils and lymphocytes). The settings on record: in vivo.
The conditions of data set [5]: in vivo.

In the case of `CCCCC/C=C\C/C=C\C/C=C\C/C=C\CCCC(=O)OC(COC(=O)CCCCCCCCCCCCCCCCC)COP(=O)(O)OC1C(O)C(O)C(O)C(O)C1O` (stereo not drawn) [PI, phosphatidyl inositol], the “functioning as deactivators of Toll-like receptors (TLR)” value in data set [1] is reported as “deactivators of Toll-like receptors”. In addition, in the data set with influenza A virus [2], the “binding of the influenza A virus to the surrogate host cells” value is “prevent the binding”. Also, in the data set on influenza A virus [2] (influenza A, model MDCK cells), the “membrane convergence of influenza A and host cell” value was “inhibited”. Also, in the data set with influenza A virus [3], the “binding affinity for the influenza A virus” value was “high binding affinity”. Further, the virus-induced proinflammatory cytokines result in data set [4] is “reduced”.

Consider `CC(C)(C)NCC(O)c1ccc(O)c(CO)c1` (stereo not drawn) [Albuterol], for which the bronchodilator effect result in data set [5] is listed as “effective bronchodilator”.
